According to patent US20250382344A1, “Soluble GLP1/GIP/NPY2 Receptor Triple Agonists” (Boehringer Ingelheim International GmH, priority 2024, published 2025):
Read-outs that look alike come from different tables or passages of the source.

Assays:
hGIPR = target: T1, hGIPR (Homo sapiens, UniProt P48546); assay: hGIPR CreLuc assay in 0.5% and 100% plasma (CHO CRE-luciferase reporter cells); format: cell-based
T1 construct: expressed in transfected cells; host or cells: CHO CRE-luciferase reporter cells
T1 sequence (P48546 22-466): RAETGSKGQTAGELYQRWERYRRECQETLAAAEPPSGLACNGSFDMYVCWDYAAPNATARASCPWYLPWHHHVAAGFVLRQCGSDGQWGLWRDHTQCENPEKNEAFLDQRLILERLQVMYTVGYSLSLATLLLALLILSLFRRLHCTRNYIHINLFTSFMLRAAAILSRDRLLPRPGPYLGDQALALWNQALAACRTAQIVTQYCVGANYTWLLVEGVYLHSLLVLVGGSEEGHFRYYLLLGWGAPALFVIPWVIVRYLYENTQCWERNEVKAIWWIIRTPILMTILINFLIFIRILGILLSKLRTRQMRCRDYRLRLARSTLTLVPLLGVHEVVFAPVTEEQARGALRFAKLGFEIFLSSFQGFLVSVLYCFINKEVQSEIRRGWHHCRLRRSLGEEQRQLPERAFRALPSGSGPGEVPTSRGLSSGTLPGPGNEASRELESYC

[1] = Solubility in 0.1 M phosphate buffer at pH 7; format: physicochemical; conditions: 0.1 M phosphate buffer at pH 7, 10 mg/mL final peptide concentration, shaking 2 hours at room temperature, peptides as TFA-salts, measured sample pH 6.5-7.0
[2] = 0.5% human plasma, read-out: hGIPR 0.5% hP
[3] = 100% human plasma, read-out: hGIPR 100% hP

SMILES	solubility at 2 h [1] [µg/mL]	EC50 (hGIPR; [2]) [nM]	EC50 (hGIPR; [3]) [nM]	solubility ([1]; read-out: Solubility) [µg/mL]	EC50 (hGIPR; hGIPR 0.5% hP (nM), 0.5% human plasma) [nM]	EC50 (hGIPR; hGIPR 100% hP (nM), 100% human plasma) [nM]
CC[C@H](C)[C@H](NC(=O)[C@H](CC(C)C)NC(=O)[C@H](Cc1c[nH]cn1)NC(=O)[C@H](CCCNC(=N)N)NC(=O)[C@@H](NC(=O)[C@H](Cc1ccccc1)NC(=O)[C@H](C)NC(=O)C(C)(C)NC(=O)[C@H](CCC(N)=O)NC(=O)[C@H](C)NC(=O)[C@H](CCC(N)=O)NC(=O)[C@H](CCCCN)NC(=O)[C@H](CCC(=O)O)NC(=O)[C@H](CC(C)C)NC(=O)C(C)(C)NC(=O)[C@@H](NC(=O)[C@H](CO)NC(=O)[C@H](CC(C)C)NC(=O)[C@H](CC(=O)O)NC(=O)[C@H](CO)NC(=O)[C@@H](NC(=O)[C@H](Cc1ccccc1)NC(=O)[C@@H](NC(=O)CNC(=O)[C@H](CCC(=O)O)NC(=O)C(C)(C)NC(=O)[C@@H](N)Cc1ccc(O)cc1)[C@@H](C)O)[C@@H](C)O)[C@@H](C)CC)C(C)C)C(=O)N[C@@H](CC(N)=O)C(=O)N[C@@H](CCCCNC(=O)CC[C@H](NC(=O)[C@@H](N)CCCCNC(=O)CC[C@H](NC(=O)CC[C@H](NC(=O)CC[C@H](NC(=O)CC[C@H](NC(=O)CC[C@H](NC(=O)CCCCCCCCCCCCCCCCCCC(=O)O)C(=O)O)C(=O)O)C(=O)O)C(=O)O)C(=O)O)C(=O)O)C(=O)NC(C)(C)C(=O)N[C@H](C(=O)N[C@@H](CCCNC(=N)N)C(=O)N[C@@H](CCC(N)=O)C(=O)N[C@@H](CCCNC(=N)N)C(=O)N[C@@H](Cc1ccc(O)cc1)C(N)=O)[C@@H](C)O [Compound 60, Y-Aib-E-G-T-F-T-S-D-L-S-I-Aib-L-E-K-Q-A-Q-Aib-A-F-V-R-H-L-I-N-K(1,3)-Aib-T-R-Q-R-Y-NH2.C20DA-gGlu-gGlu-gGlu-gGlu-gGlu-eLys-gGlu(1,2)]	9600				0.3	8
CC[C@H](C)[C@H](NC(=O)[C@H](CC(C)C)NC(=O)[C@H](Cc1c[nH]cn1)NC(=O)[C@H](CCCNC(=N)N)NC(=O)[C@@H](NC(=O)[C@H](Cc1ccccc1)NC(=O)[C@H](C)NC(=O)C(C)(C)NC(=O)[C@H](CCC(N)=O)NC(=O)[C@H](C)NC(=O)[C@H](CCC(N)=O)NC(=O)[C@H](CCCCN)NC(=O)[C@H](CCC(=O)O)NC(=O)[C@H](CC(C)C)NC(=O)C(C)(C)NC(=O)[C@@H](NC(=O)[C@H](CO)NC(=O)[C@H](Cc1ccc(O)cc1)NC(=O)[C@H](CC(=O)O)NC(=O)[C@H](CO)NC(=O)[C@@H](NC(=O)[C@H](Cc1ccccc1)NC(=O)[C@@H](NC(=O)CNC(=O)[C@H](CCC(=O)O)NC(=O)C(C)(C)NC(=O)[C@@H](N)Cc1ccc(O)cc1)[C@@H](C)O)[C@@H](C)O)[C@@H](C)CC)C(C)C)C(=O)N[C@@H](CC(N)=O)C(=O)N[C@@H](CCCCNC(=O)[C@@H](N)CCCCNC(=O)CC[C@H](NC(=O)CC[C@H](NC(=O)CC[C@H](NC(=O)CC[C@H](NC(=O)CC[C@H](NC(=O)CC[C@H](NC(=O)CC[C@H](NC(=O)CCCCCCCCCCCCCCCCCCC(=O)O)C(=O)O)C(=O)O)C(=O)O)C(=O)O)C(=O)O)C(=O)O)C(=O)O)C(=O)NC(C)(C)C(=O)N[C@H](C(=O)N[C@@H](CCCNC(=N)N)C(=O)N[C@@H](CCC(N)=O)C(=O)N[C@@H](CCCNC(=N)N)C(=O)N[C@@H](Cc1ccc(O)cc1)C(N)=O)[C@@H](C)O [Compound 35, Y-Aib-E-G-T-F-T-S-D-Y-S-I-Aib-L-E-K-Q-A-Q-Aib-A-F-V-R-H-L-I-N-K(1,3)-Aib-T-R-Q-R-Y-NH2.C20DA-gGlu-gGlu-gGlu-gGlu-gGlu-gGlu-gGlu-eLys(1,2)]	5200	0.7				
CC[C@H](C)[C@H](NC(=O)[C@H](CC(C)C)NC(=O)[C@H](Cc1c[nH]cn1)NC(=O)[C@H](CCCNC(=N)N)NC(=O)[C@@H](NC(=O)[C@H](Cc1ccccc1)NC(=O)[C@H](C)NC(=O)C(C)(C)NC(=O)[C@H](CCC(N)=O)NC(=O)[C@H](C)NC(=O)[C@H](CCC(N)=O)NC(=O)[C@H](CCCCN)NC(=O)[C@H](CCC(=O)O)NC(=O)[C@H](CC(C)C)NC(=O)C(C)(C)NC(=O)[C@@H](NC(=O)[C@H](CO)NC(=O)[C@H](Cc1ccc(O)cc1)NC(=O)[C@H](CC(=O)O)NC(=O)[C@H](CO)NC(=O)[C@@H](NC(=O)[C@H](Cc1ccccc1)NC(=O)[C@@H](NC(=O)CNC(=O)[C@H](CCC(=O)O)NC(=O)C(C)(C)NC(=O)[C@@H](N)Cc1ccc(O)cc1)[C@@H](C)O)[C@@H](C)O)[C@@H](C)CC)C(C)C)C(=O)N[C@@H](CC(N)=O)C(=O)N[C@@H](CCCCNC(=O)CC[C@H](NC(=O)CC[C@H](NC(=O)CC[C@H](NC(=O)CC[C@H](NC(=O)CC[C@H](NC(=O)CC[C@H](NC(=O)[C@H]1CC[C@H](CNC(=O)CCCCCCCCCCCCCCCCCCC(=O)O)CC1)C(=O)O)C(=O)O)C(=O)O)C(=O)O)C(=O)O)C(=O)O)C(=O)NC(C)(C)C(=O)N[C@H](C(=O)N[C@@H](CCCNC(=N)N)C(=O)N[C@@H](CCC(N)=O)C(=O)N[C@@H](CCCNC(=N)N)C(=O)N[C@@H](Cc1ccc(O)cc1)C(N)=O)[C@@H](C)O [Compound 133, Y-Aib-E-G-T-F-T-S-D-Y-S-I-Aib-L-E-K-Q-A-Q-Aib-A-F-V-R-H-L-I-N-K(1,3)-Aib-T-R-Q-R-Y-NH2.C20DA-TRX-gGlu-gGlu-gGlu-gGlu-gGlu-gGlu(1,2)]	4200	0.3	3.4			

Further compounds by falling EC50 (hGIPR; [2]), results first:

solubility at 2 h [1] [µg/mL]	EC50 (hGIPR; [2]) [nM]	EC50 (hGIPR; [3]) [nM]	solubility ([1]; read-out: Solubility) [µg/mL]	SMILES	EC50 (hGIPR; hGIPR 0.5% hP (nM), 0.5% human plasma) [nM]	EC50 (hGIPR; hGIPR 100% hP (nM), 100% human plasma) [nM]
	0.6		4900	CC[C@H](C)[C@H](NC(=O)[C@H](CC(C)C)NC(=O)[C@H](Cc1c[nH]cn1)NC(=O)[C@H](CCCNC(=N)N)NC(=O)[C@@H](NC(=O)[C@H](Cc1ccccc1)NC(=O)[C@H](CCC(=O)O)NC(=O)C(C)(C)NC(=O)[C@H](CCC(N)=O)NC(=O)[C@H](C)NC(=O)[C@H](CCC(N)=O)NC(=O)[C@H](CCCCN)NC(=O)[C@H](CCC(=O)O)NC(=O)[C@H](CC(C)C)NC(=O)C(C)(C)NC(=O)[C@@H](NC(=O)[C@H](CO)NC(=O)[C@H](Cc1ccc(O)cc1)NC(=O)[C@H](CC(=O)O)NC(=O)[C@H](CO)NC(=O)[C@@H](NC(=O)[C@H](Cc1ccccc1)NC(=O)[C@@H](NC(=O)CNC(=O)[C@H](CCC(=O)O)NC(=O)C(C)(C)NC(=O)[C@@H](N)Cc1ccc(O)cc1)[C@@H](C)O)[C@@H](C)O)[C@@H](C)CC)C(C)C)C(=O)N[C@@H](CC(N)=O)C(=O)N[C@@H](CCCCNC(=O)[C@@H](N)CCCCNC(=O)CC[C@H](NC(=O)CC[C@H](NC(=O)CC[C@H](NC(=O)CC[C@H](NC(=O)CC[C@H](NC(=O)CC[C@H](NC(=O)CCCCCCCCCCCCCCCCCCC(=O)O)C(=O)O)C(=O)O)C(=O)O)C(=O)O)C(=O)O)C(=O)O)C(=O)NC(C)(C)C(=O)N[C@H](C(=O)N[C@@H](CCCNC(=N)N)C(=O)N[C@@H](CCC(N)=O)C(=O)N[C@@H](CCCNC(=N)N)C(=O)N[C@@H](Cc1ccc(O)cc1)C(N)=O)[C@@H](C)O [Compound 149, Y-Aib-E-G-T-F-T-S-D-Y-S-I-Aib-L-E-K-Q-A-Q-Aib-E-F-V-R-H-L-I-N-K(1,3)-Aib-T-R-Q-R-Y-NH2.C20DA-gGlu-gGlu-gGlu-gGlu-gGlu-gGlu-eLys(1,2)]		
10000	0.3	11.5		CC[C@H](C)[C@H](NC(=O)[C@H](CC(C)C)NC(=O)[C@H](Cc1c[nH]cn1)NC(=O)[C@H](CCCNC(=N)N)NC(=O)[C@@H](NC(=O)[C@H](Cc1ccccc1)NC(=O)[C@H](C)NC(=O)C(C)(C)NC(=O)[C@H](CCC(N)=O)NC(=O)[C@H](C)NC(=O)[C@H](C)NC(=O)[C@H](CCCCN)NC(=O)[C@H](CCC(=O)O)NC(=O)[C@H](CC(C)C)NC(=O)C(C)(C)NC(=O)[C@@H](NC(=O)[C@H](CO)NC(=O)[C@H](Cc1ccc(O)cc1)NC(=O)[C@H](CC(=O)O)NC(=O)[C@H](CO)NC(=O)[C@@H](NC(=O)[C@H](Cc1ccccc1)NC(=O)[C@@H](NC(=O)CNC(=O)[C@H](CCC(=O)O)NC(=O)C(C)(C)NC(=O)[C@@H](N)Cc1ccc(O)cc1)[C@@H](C)O)[C@@H](C)O)[C@@H](C)CC)C(C)C)C(=O)N[C@@H](CC(N)=O)C(=O)N[C@@H](CCCCNC(=O)[C@@H](N)CCCCNC(=O)CC[C@H](NC(=O)CC[C@H](NC(=O)CC[C@H](NC(=O)CC[C@H](NC(=O)CC[C@H](NC(=O)CC[C@H](NC(=O)CCCCCCCCCCCCCCCCCCC(=O)O)C(=O)O)C(=O)O)C(=O)O)C(=O)O)C(=O)O)C(=O)O)C(=O)NC(C)(C)C(=O)N[C@H](C(=O)N[C@@H](CCCNC(=N)N)C(=O)N[C@@H](CCC(N)=O)C(=O)N[C@@H](CCCNC(=N)N)C(=O)N[C@@H](Cc1ccc(O)cc1)C(N)=O)[C@@H](C)O [Compound 4, Y-Aib-E-G-T-F-T-S-D-Y-S-I-Aib-L-E-K-A-A-Q-Aib-A-F-V-R-H-L-I-N-K(1,3)-Aib-T-R-Q-R-Y-NH2.C20DA-gGlu-gGlu-gGlu-gGlu-gGlu-gGlu-eLys(1,2)]		
